These results are taken from article PMC11679033, “Assessing the Potential Synergistic/Antagonistic Effects of Citrinin and Cannabidiol on SH-SY5Y, HepG2, HEK293 Cell Lines, and Human Lymphocytes” (Toxins, 2024).

On the set-up of series [1]: method as in PMID 38908200. The note with it: 24 h exposure to CBD samples; cited from earlier work.
The subject of series [2] is buccal-derived cells (TR146). On the set-up: method as in PMID 30341733. The note with it: cited from earlier work.
Series [3] can be described thus: MTS viability assay, HepG2. The class given is cell-based, human. Particulars: human, HepG2 cells; HepG2, 24 h exposure, MTS; read-out: IC50 (cytotoxicity). Here is the method: (§1) Human neuroblastoma SH-SY5Y cells (ECACC 94030304), human hepatocyte carcinoma HepG2 (ECACC 85011430) and human embryonic kidney HEK293 (ECACC 85120602) used in the experiments were obtained from the European Collection of Authenticated Cell Cultures (ECACC) through Sigma-Aldrich (Steinheim, Germany). SH-SY5Y cells were grown in Dulbecco’s Modified Eagle’s Medium F12 containing 15% (v/v) fetal bovine serum (FBS), 2 mM glutamine, 1% (v/v) penicillin/streptomycin (PenStrep solution), and 1% (v/v) non-essential amino acids (NEAA solution). HEK293 and HepG2 cells were grown in EMEM medium (Sigma-Aldrich, Steinheim, Germany) supplemented with 10% (v/v) FBS, 2 mM glutamine, 1% (v/v) PenStrep and 1% (v/v) NEAA. All media and supplements were purchased from Sigma-Aldrich, Steinheim, Germany. Cells were cultured at 37 °C in a 5% CO2 atmosphere, the medium was changed every two days, and passage was carried out according to the manufacturer’s protocol.
(§2) MTS assay (CellTiter 96® AQueous One Solution Cell Proliferation Assay, Promega, Madison, WI, USA) was used to determine the viability of cells/cytotoxic properties of tested compounds by measuring cells’ mitochondrial succinate dehydrogenase activity. The procedure followed a previously described protocol. In brief, the cells were seeded in transparent 96-well plates at a density of 20,000 cells/well one day before the experiment and treated with tested compounds in concentrations: 0.01, 0.1, 0.5, 1, 2, 5, 10, 25, 50, 100 and 300 µM. Triton X-100 at a final concentration of 0.18% (v/v) (stock of 9% in water; Sigma-Aldrich, Steinheim, Germany) was used as a positive control. After 24 h, treatment with tested compounds and incubation with MTS reagent, the absorbance was read at 492 nm on an Infinite M200PRO (Tecan Group Ltd., Männedorf, Switzerland) plate reader. Data were taken from at least three independent experiments (each treatment performed in duplicate or triplicate) and expressed as percentages (mean ± standard error) of viable cells compared to control (untreated) cells. IC50 values were determined by a nonlinear fit equation predefined in Prism software 8 (GraphPad Software, San Diego, CA, USA).
(§3) The same method was used to evaluate a potential toxic synergistic effect on cells exposed to a combination of CBD and CIT at approximately LOAEL doses (lowest observed adverse effect level, 1 and 30 μM for SH-SY5Y and HepG2, and 2 and 0.05 μM for HEK293, respectively). There is no official recommendation for CBD oral use, but according to the available literature, we used a dose that corresponded to daily intake, which was 10 mg/kg/day (calculated on a person of 70 kg ~ 1 μM). These selected LOAEL concentrations were used for all other assays as well.
In general terms: Tetrazolium dyes change colour on reduction, which living cells bring about.

The test system of series [4] is HepG2 cells. The experiment in a line: MTS viability assay, HepG2. The class given is cell-based, human. The note with it: for lowest observed adverse effect level (LOAEL), approximate / cell viability at LOAEL concentrations: HepG2, 24 h; for cell viability at LOAEL concentrations: CBD 1 μM, CIT 30 μM, alone or combined. How it is done:
as §1, §2, §3

The subject of series [5] is human TK6 cells. Details: method as in PMID 37105391. The note with it: up to 10–11 μg/mL, with and without metabolic activation; cited from earlier work.
The subject of series [6] is human liver cell line (HepG2). Details: method as in PMID 30341733. The note with it: cited from earlier work.
Series [7] can be described thus: MTS viability assay, SH-SY5Y. The class given is cell-based, human. The note with it: human, SH-SY5Y cells; SH-SY5Y, 24 h exposure, MTS; read-out: IC50 (cytotoxicity). Here is the method: as §1, §2, §3
For series [8], the system named is SH-SY5Y cells. As to the kind of experiment: MTS viability assay, SH-SY5Y. The class given is cell-based, human. The note with it: for IC20: Homo sapiens, established on SH-SY5Y and HepG2 cell models, read-out: IC20 concentration; for lowest observed adverse effect level (LOAEL), approximate / cell viability at LOAEL concentrations: SH-SY5Y, 24 h; for cell viability at LOAEL concentrations: CBD 1 μM, CIT 30 μM, alone or combined. Here is the method:
as §1, §2, §3

Series [9] deals with HepG2 cells. The experiment in a line: Cell membrane integrity (LDH release), HepG2. Particulars: HepG2, 24 h; CBD 1 μM, CIT 30 μM, alone or combined. The class given is cell-based, human. How it is done: (§4) Cell membrane integrity was determined after exposure to compounds’ concentrations corresponding to LOAEL concentrations in 24 h by measuring the release of the intracellular lactate dehydrogenase (LDH) and the procedure followed a previously described protocol using The CytoTox-ONE™ Homogeneous Membrane Integrity Assay (Promega, Madison, WI, USA). In short, the cells were seeded in black 96-well plates at a density of 10,000 cells/well one day before the experiment and treated with selected LOAEL concentrations. Triton X-100 at a final concentration of 0.18% (v/v) (stock of 9% in water) was used as a positive control to determine the maximal LDH release. Data were taken from at least two independent experiments (each treatment performed in duplicate or triplicate) and plotted as a percentage of LDH release compared to the determined maximal LDH release, according to the manufacturer’s calculation protocol.

The test system of series [10] is HEK293 cells. The experiment in a line: Cell membrane integrity (LDH release), HEK293. The class given is cell-based, human. Particulars: HEK293, 24 h; CBD 2 μM, CIT 0.05 μM, alone or combined. How it is done: as §4
A general note: LDH in the medium is a marker of cell lysis.

The test system of series [11] is HEK293 cells. The experiment in a line: MTS viability assay, HEK293. The class given is cell-based, human. The note with it: HEK293, 24 h; for cell viability at LOAEL concentrations: CBD 2 μM, CIT 0.05 μM, alone or combined. Here is the method:
as §1, §2, §3

Series [12] is described as follows: MTS viability assay, HEK293. The class given is cell-based, human. Particulars: human, HEK293 cells; HEK293, 24 h exposure, MTS; read-out: IC50 (cytotoxicity). How it is done:
as §1, §2, §3

In series [13] the test system is cultured human lymphocytes. Details: method as in PMID 17265422. Particulars: 48 h exposure, 60–100 μM; cited from earlier work.
Series [14] has as its system HEK293 cells. On the set-up: method as in PMID 13678658. Particulars: HEK293, concentrations ≤60 μM for 24 h; cited from earlier work.
In series [15] the test system is HepG2 cells. Particulars: cited from earlier work.
The test system of series [16] is A549 cells. On the set-up: method as in PMID 39057961. The note with it: A549, 24 h, sub-IC50 and near IC50 concentrations; cited from earlier work.

“And” between values parts separate entries of the source, which are not always exact repeats. Equal entries are not always repeated.

As a reminder, the IC50 is the concentration needed to halve the response being measured. As for `C=C(C)[C@@H]1CCC(C)=C[C@H]1c1c(O)cc(CCCCC)cc1O` [CBD, cannabidiol], in [1], the “genomic instability estimated by CBMN Cyt Assay” value is “no changes in genomic instability”. Also, the “level above which damage was found in MN assay” value in [2] and in [6] was “above 0.2 µM” in each case. The IC50 at 24 h stood at 40 ± 7 µM in [3], 13 ± 2 µM in series [7] and 5000 ± 1000 nM in series [12]. Besides, the entries for the “lowest observed adverse effect level (LOAEL), approximate” value in series [4], in [8] and in series [11] were ~ 1 μM, ~ 1 μM and approximately 2 µM, respectively. For the same compound, the “cell viability at LOAEL concentrations” value in series [4], in [8] and in [11] was “did not independently impact cell viability” throughout. In addition, the “cytotoxicity fold higher than CIT” value in series [4] (in both HepG2 and SH-SY5Y, 24 h) is listed as 1.5- to 4 fold. In series [5], the genotoxic hazard entry was “did not pose a genotoxic hazard”. In series [8], the IC20 was 1 µM and 3.15 µg/mL. For the same compound, the “cell membrane integrity (LDH release)” value in series [9] and in [10] was “not significantly compromised” throughout.

For `CC1=C2C(=CO[C@H](C)[C@H]2C)C(O)=C(C(=O)O)C1=O` [CIT, citrinin], the IC50 at 24 h came out at 59 ± 9 µM in [3], 52 ± 8 µM in series [7] and 440 ± 20 nM in [12]. Besides, the entries for the “lowest observed adverse effect level (LOAEL), approximate” value in series [4], in [8] and in series [11] were approximately 30 µM, approximately 30 µM and approximately 0.05 µM, respectively. Also, the “cell viability at LOAEL concentrations” value in series [4], in series [8] and in [11] was “did not independently impact cell viability” in each case. In series [13], the “induction of MNi vs negative controls” value is on record as “significant induction of MNi”. Also, in series [14], the “toxic effect in Fpg-modified comet assay” value was “did not show toxic effect”. Moreover, the “DNA damage in comet assay” value in series [15] (HepG2, 24 h, sub-IC50 and near IC50 concentrations) is “induced significant DNA damage”; in series [16] it was “induced significant DNA damage”. For the same compound, the “genotoxicity in comet assay” value in series [15] (HepG2) is given as “no significant genotoxicity”. The IC20 in series [8] was 30 µM and 7.5 µg/mL. In addition, the “cell membrane integrity (LDH release)” value in series [9] and in series [10] was “not significantly compromised” throughout. Also, the “IC50 fold lower than that of CBD” value in series [11] worked out at 11 fold.
